Data: patent US20100016547A1, “Glycosilated Peptide and Medicine Comprising It as an Effective Ingredient” (priority 2005, published 2010)

Tests used:
[1] = biological target: T1, GLP-1 receptor (Homo sapiens, UniProt P43220); test: Assay for production of cAMP
Protocol: Assay for Production of cAMP
After stirring at room temperature for an hour, the cells were lysed with Triton X-100 (final concentration: 1%).
Quantity of cAMP was determined using cAMP Femtomolar Kit (CIS Bio International). The reaction solution (1 μL) was moved to a new 384-well plate and diluted by adding 9 μL of dilution buffer. Next, each 5 μL of cAMP-XL665 solution and anti-cAMP cryptate solution of the Kit was added, the mixture was incubated at room temperature for an hour, and time-resolved fluorescence was measured using RUBYstar (BMG LABTECH).

[2] = biological target: T1, GLP-1 receptor
Protocol: After being incubated at room temperature for 2 hours, the solution was filtered through a unifilter 96GF/C plate (Perkin-Elmer) pretreated with 1% polyethylenimine containing 0.5% BSA, washed with 25 mM HEPES buffer solution (pH 7.4) containing 0.5% BSA, and radioactivity remained on the filter was measured by a gamma counter (Top Counter; Perkin-Elmer).

T1 sequence (P43220 24-463, species assumed): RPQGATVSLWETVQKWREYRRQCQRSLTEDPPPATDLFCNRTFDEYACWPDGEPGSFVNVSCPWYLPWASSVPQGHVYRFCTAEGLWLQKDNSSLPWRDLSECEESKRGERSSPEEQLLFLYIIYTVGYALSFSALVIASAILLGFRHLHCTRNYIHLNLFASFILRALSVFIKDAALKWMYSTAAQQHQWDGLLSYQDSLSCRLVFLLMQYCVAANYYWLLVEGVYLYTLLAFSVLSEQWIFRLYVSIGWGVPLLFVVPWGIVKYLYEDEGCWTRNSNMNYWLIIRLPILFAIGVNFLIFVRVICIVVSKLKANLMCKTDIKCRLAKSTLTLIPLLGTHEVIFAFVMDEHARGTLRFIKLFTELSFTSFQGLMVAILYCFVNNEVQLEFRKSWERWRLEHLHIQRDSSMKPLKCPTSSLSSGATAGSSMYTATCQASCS

Compound	EC50 [1]	IC50 [2]
CC[C@H](C)[C@H](NC(=O)[C@H](Cc1ccccc1)NC(=O)[C@H](CCC(=O)O)NC(=O)[C@H](CCCCN)NC(=O)[C@H](C)NC(=O)[C@H](C)NC(=O)[C@H](CCC(N)=O)NC(=O)CNC(=O)[C@H](CCC(=O)O)NC(=O)[C@H](CC(C)C)NC(=O)[C@H](Cc1ccc(O)cc1)NC(=O)[C@H](CO)NC(=O)[C@H](CO)NC(=O)[C@@H](NC(=O)[C@H](CC(=O)O)NC(=O)[C@H](CO)NC(=O)[C@@H](NC(=O)[C@H](Cc1ccccc1)NC(=O)[C@@H](NC(=O)CNC(=O)[C@H](CCC(=O)O)NC(=O)[C@H](C)NC(=O)[C@@H](N)Cc1c[nH]cn1)[C@@H](C)O)[C@@H](C)O)C(C)C)C(=O)N[C@@H](C)C(=O)N[C@@H](Cc1c[nH]c2ccccc12)C(=O)N[C@@H](CC(C)C)C(=O)N[C@H](C(=O)N[C@@H](CSCC(=O)N[C@@H](CC(=O)N[C@@H]1O[C@H](CO)[C@@H](O[C@@H]2O[C@H](CO)[C@@H](O[C@@H]3O[C@H](CO[C@H]4O[C@H](CO)[C@@H](O)[C@H](O)[C@@H]4O[C@@H]4O[C@H](CO)[C@@H](O[C@@H]5O[C@H](CO[C@]6(C(=O)O)C[C@H](O)[C@@H](NC(C)=O)[C@H]([C@H](O)[C@H](O)CO)O6)[C@H](O)[C@H](O)[C@H]5O)[C@H](O)[C@H]4NC(C)=O)[C@@H](O)[C@H](O[C@H]4O[C@H](CO)[C@@H](O)[C@H](O)[C@@H]4O[C@@H]4O[C@H](CO)[C@@H](O[C@@H]5O[C@H](CO[C@]6(C(=O)O)C[C@H](O)[C@@H](NC(C)=O)[C@H]([C@H](O)[C@H](O)CO)O6)[C@H](O)[C@H](O)[C@H]5O)[C@H](O)[C@H]4NC(C)=O)[C@@H]3O)[C@H](O)[C@H]2NC(C)=O)[C@H](O)[C@H]1NC(C)=O)C(=O)O)C(=O)NCC(=O)N[C@@H](CCCNC(=N)N)C(=O)N[C@@H](CSCC(=O)N[C@@H](CC(=O)N[C@@H]1O[C@H](CO)[C@@H](O[C@@H]2O[C@H](CO)[C@@H](O[C@@H]3O[C@H](CO[C@H]4O[C@H](CO)[C@@H](O)[C@H](O)[C@@H]4O[C@@H]4O[C@H](CO)[C@@H](O[C@@H]5O[C@H](CO[C@]6(C(=O)O)C[C@H](O)[C@@H](NC(C)=O)[C@H]([C@H](O)[C@H](O)CO)O6)[C@H](O)[C@H](O)[C@H]5O)[C@H](O)[C@H]4NC(C)=O)[C@@H](O)[C@H](O[C@H]4O[C@H](CO)[C@@H](O)[C@H](O)[C@@H]4O[C@@H]4O[C@H](CO)[C@@H](O[C@@H]5O[C@H](CO[C@]6(C(=O)O)C[C@H](O)[C@@H](NC(C)=O)[C@H]([C@H](O)[C@H](O)CO)O6)[C@H](O)[C@H](O)[C@H]5O)[C@H](O)[C@H]4NC(C)=O)[C@@H]3O)[C@H](O)[C@H]2NC(C)=O)[C@H](O)[C@H]1NC(C)=O)C(=O)O)C(N)=O)C(C)C [GL3437CE1]	4.1 nM	30 nM
CC[C@H](C)[C@H](NC(=O)[C@H](Cc1ccccc1)NC(=O)[C@H](CCC(=O)O)NC(=O)[C@H](CCCCN)NC(=O)[C@H](C)NC(=O)[C@H](C)NC(=O)[C@H](CCC(N)=O)NC(=O)CNC(=O)[C@H](CCC(=O)O)NC(=O)[C@H](CC(C)C)NC(=O)[C@H](Cc1ccc(O)cc1)NC(=O)[C@H](CO)NC(=O)[C@H](CO)NC(=O)[C@@H](NC(=O)[C@H](CC(=O)O)NC(=O)[C@H](CO)NC(=O)[C@@H](NC(=O)[C@H](Cc1ccccc1)NC(=O)[C@@H](NC(=O)CNC(=O)[C@H](CCC(=O)O)NC(=O)[C@H](C)NC(=O)[C@@H](N)Cc1c[nH]cn1)[C@@H](C)O)[C@@H](C)O)C(C)C)C(=O)N[C@@H](C)C(=O)N[C@@H](Cc1c[nH]c2ccccc12)C(=O)N[C@@H](CC(C)C)C(=O)N[C@H](C(=O)N[C@@H](CC(=O)N[C@@H]1O[C@H](CO)[C@@H](O)[C@H](O)[C@H]1NC(C)=O)C(=O)NCC(=O)N[C@@H](CCCNC(=N)N)C(=O)N[C@@H](CC(=O)N[C@@H]1O[C@H](CO)[C@@H](O)[C@H](O)[C@H]1NC(C)=O)C(N)=O)C(C)C [GL3437NG]	0.11 nM	0.9 nM
CC[C@H](C)[C@H](NC(=O)[C@H](Cc1ccccc1)NC(=O)[C@H](CCC(=O)O)NC(=O)[C@H](CCCCN)NC(=O)[C@H](C)NC(=O)[C@H](C)NC(=O)[C@H](CCC(N)=O)NC(=O)CNC(=O)[C@H](CCC(=O)O)NC(=O)[C@H](CC(C)C)NC(=O)[C@H](Cc1ccc(O)cc1)NC(=O)[C@H](CO)NC(=O)[C@H](CO)NC(=O)[C@@H](NC(=O)[C@H](CC(=O)O)NC(=O)[C@H](CO)NC(=O)[C@@H](NC(=O)[C@H](Cc1ccccc1)NC(=O)[C@@H](NC(=O)CNC(=O)[C@H](CCC(=O)O)NC(=O)[C@H](C)NC(=O)[C@@H](N)Cc1c[nH]cn1)[C@@H](C)O)[C@@H](C)O)C(C)C)C(=O)N[C@@H](C)C(=O)N[C@@H](Cc1c[nH]c2ccccc12)C(=O)N[C@@H](CC(C)C)C(=O)N[C@H](C(=O)N[C@@H](CC(=O)N[C@@H]1O[C@H](CO)[C@@H](O[C@@H]2O[C@H](CO[C@]3(C(=O)O)C[C@H](O)[C@@H](NC(C)=O)[C@H]([C@H](O)[C@H](O)CO)O3)[C@H](O)[C@H](O)[C@H]2O)[C@H](O)[C@H]1NC(C)=O)C(=O)NCC(=O)N[C@@H](CCCNC(=N)N)C(=O)N[C@@H](CC(=O)N[C@@H]1O[C@H](CO)[C@@H](O[C@@H]2O[C@H](CO[C@]3(C(=O)O)C[C@H](O)[C@@H](NC(C)=O)[C@H]([C@H](O)[C@H](O)CO)O3)[C@H](O)[C@H](O)[C@H]2O)[C@H](O)[C@H]1NC(C)=O)C(N)=O)C(C)C [GL3437NS6]	0.2 nM	3 nM
H-HAEGTFTSDVSSNLEGQAAKEFIAWLVKGR-NH2 [GL19N]	0.92 nM	11 nM
